From PubChem BioAssay AID330 (DTP/NCI, 2004)
“And” between values parts separate entries of the source, which are not always exact repeats. Equal values may be shown once. Toxic doses and inconclusive results are not listed. Numbered stars: 1 amine (or outer) side, 2 acyl side, 3 side chain; on linkers, the order of the positions; unused ones are H or OH. Peptide text beside a SMILES is read from it. γGlu = O=C(O)[CH](CCC(=O)[*:2])N[*:1]

Tested on: P388 leukemia ip, CD2F1 mice, survival T/C
Assay: NCI In Vivo Anticancer Drug Screen. Data for tumor model P388 Leukemia (intraperitoneal) in CD2F1 (CDF1) mice
Settings: endpoint: median survival time, higher = longer survival
Method in brief: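 Mice carrying the transplanted tumor received test compound or vehicle. Survival was recorded in each group, and the value is the treated-group measurement divided by that of the vehicle-treated control group.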

[1] = dose: 60.0 mg/kg/injection, schedule: Q01DX005 (ip), vehicle: saline with Tween-80
[2] = dose: 120.0 mg/kg/injection, schedule: Q01DX005 (ip), vehicle: saline with Tween-80
[3] = dose: 240.0 mg/kg/injection, schedule: Q01DX005 (ip), vehicle: saline with Tween-80
[4] = dose: 50.0 mg/kg/injection, schedule: Q01DX005 (ip), vehicle: saline with Tween-80
[5] = dose: 12.5 mg/kg/injection, schedule: Q01DX009 (ip), vehicle: saline
[6] = dose: 50.0 mg/kg/injection, schedule: Q01DX009 (ip), vehicle: saline with Tween-80
[7] = dose: 100.0 mg/kg/injection, schedule: Q01DX009 (ip), vehicle: saline with Tween-80
[8] = dose: 50.0 mg/kg/injection, schedule: Q01DX005 (ip), vehicle: Klucel (hydroxypropylcellulose) (HPC)
[9] = dose: 100.0 mg/kg/injection, schedule: Q01DX005 (ip), vehicle: Klucel (hydroxypropylcellulose) (HPC)
[10] = dose: 200.0 mg/kg/injection, schedule: Q01DX005 (ip), vehicle: Klucel (hydroxypropylcellulose) (HPC)
[11] = dose: 100.0 mg/kg/injection, schedule: Q01DX005 (ip), vehicle: saline with Tween-80
[12] = dose: 200.0 mg/kg/injection, schedule: Q01DX009 (ip), vehicle: saline with Tween-80
[13] = dose: 60.0 mg/kg/injection, schedule: Q01DX005 (ip), vehicle: Klucel (hydroxypropylcellulose) (HPC)
[14] = dose: 120.0 mg/kg/injection, schedule: Q01DX005 (ip), vehicle: Klucel (hydroxypropylcellulose) (HPC)
[15] = dose: 240.0 mg/kg/injection, schedule: Q01DX005 (ip), vehicle: Klucel (hydroxypropylcellulose) (HPC)
[16] = dose: 100.0 mg/kg/injection, schedule: Q04DX003 (ip), vehicle: saline with Tween-80
[17] = dose: 200.0 mg/kg/injection, schedule: Q04DX003 (ip), vehicle: saline with Tween-80
[18] = dose: 400.0 mg/kg/injection, schedule: Q04DX003 (ip), vehicle: saline with Tween-80

SMILES: O=C1C=C(NCC2CCCN3CCCCC23)C(=O)c2ccccc21 (stereo not drawn)
- T/C (dose: 94.62 mg/kg/injection, schedule: Q04DX002 (ip), vehicle: Klucel (hydroxypropylcellulose) (HPC)): 112 % of control
- T/C (dose: 189.25 mg/kg/injection, schedule: Q04DX002 (ip), vehicle: Klucel (hydroxypropylcellulose) (HPC)): 111 % of control

SMILES: NC(=O)c1csc([C@@H](O)Cc2ccccc2)n1
- T/C [1]: 105 % of control
- T/C [2]: 106 % of control
- T/C [3]: 106 % of control

SMILES: C1=C(c2ccccc2)CC2CCC1N2Cc1ccccc1 (stereo not drawn)
- T/C (dose: 12.5 mg/kg/injection, schedule: Q01DX005 (ip), vehicle: saline with Tween-80): 99 % of control
- T/C (dose: 25.0 mg/kg/injection, schedule: Q01DX005 (ip), vehicle: saline with Tween-80): 103 % of control
- T/C [4]: 101 % of control and 103 % of control

SMILES: O=C1C(O)=C(c2ccccc2)C(=O)C(O)=C1c1ccccc1
- T/C [5]: 101 % of control and 124 % of control
- T/C (dose: 50.0 mg/kg/injection, schedule: Q01DX009 (ip), vehicle: saline): 157 % of control and 164 % of control

SMILES: NNC(=O)c1ccccc1O
- T/C [6]: 100 % of control
- T/C [7]: 100 % of control

SMILES: CSc1nc(C#N)c(/N=C\N(C)C)s1
- T/C [8]: 100 % of control
- T/C [9]: 99 % of control
- T/C [10]: 100 % of control

SMILES: CCC1=C[C@@H]2C[C@](C(=O)OC)(c3cc4c(cc3OC)N(C)[C@H]3[C@@](O)(C(=O)OC)[C@H](OC(C)=O)[C@]5(CC)C=CCN6CC[C@]43[C@@H]65)c3[nH]c4ccccc4c3CCN(C1)C2=O
- T/C (dose: 4.7 mg/kg/injection, schedule: Q01DX001 (ip), vehicle: other): 113 % of control
- T/C (dose: 9.4 mg/kg/injection, schedule: Q01DX001 (ip), vehicle: other): 117 % of control
- T/C (dose: 37.5 mg/kg/injection, schedule: Q01DX001 (ip), vehicle: suspension in saline): 195 % of control

SMILES: Cc1ccc(CCN(S(=O)(=O)c2ccc(C)cc2)S(=O)(=O)c2ccc(C)cc2)cc1
- T/C (dose: 50.0 mg/kg/injection, schedule: Q01DX009 (ip), vehicle: Klucel (hydroxypropylcellulose) (HPC)): 92 % of control
- T/C (dose: 100.0 mg/kg/injection, schedule: Q01DX009 (ip), vehicle: Klucel (hydroxypropylcellulose) (HPC)): 96 % of control
- T/C (dose: 200.0 mg/kg/injection, schedule: Q01DX009 (ip), vehicle: Klucel (hydroxypropylcellulose) (HPC)): 86 % of control

SMILES: CC(C)=CCC(C)/C(=N\[N+](C)(C)C)c1ccccc1 (stereo not drawn)
- T/C (dose: 6.25 mg/kg/injection, schedule: Q01DX009 (ip), vehicle: saline): 94 % of control
- T/C [5]: 99 % of control
- T/C (dose: 25.0 mg/kg/injection, schedule: Q01DX009 (ip), vehicle: saline): 101 % of control and 116 % of control

SMILES: NC(CCC(=O)NC(CCC(=O)O)C(=O)NC(CCC(=O)O)C(=O)O)C(=O)O (stereo not drawn) (γGlu-Glu-Glu-OH; configuration not given here)
- T/C (dose: 50.0 mg/kg/injection, schedule: Q01DX005 (ip), vehicle: saline): 98 % of control
- T/C (dose: 100.0 mg/kg/injection, schedule: Q01DX005 (ip), vehicle: saline): 95 % of control
- T/C (dose: 200.0 mg/kg/injection, schedule: Q01DX005 (ip), vehicle: saline): 102 % of control

SMILES: CC(NNC(=S)N1CCCC1)c1ccccn1 (stereo not drawn)
- T/C [4]: 107 % of control
- T/C [11]: 105 % of control

SMILES: O=C(O)CCCCC1SCC2NC(=O)NC21 (stereo not drawn)
- T/C [6]: 100 % of control
- T/C [7]: 108 % of control
- T/C [12]: 108 % of control

SMILES: COc1ccc(C2C3=C(CCCC3=O)Oc3cc4c(cc32)OCO4)cc1 (stereo not drawn)
- T/C (dose: 7.5 mg/kg/injection, schedule: Q01DX005 (ip), vehicle: saline with Tween-80): 100 % of control
- T/C (dose: 15.0 mg/kg/injection, schedule: Q01DX005 (ip), vehicle: saline with Tween-80): 94 % of control
- T/C (dose: 30.0 mg/kg/injection, schedule: Q01DX005 (ip), vehicle: saline with Tween-80): 92 % of control
- T/C [1]: 90 % of control and 91 % of control

SMILES: C#CCOc1c(Cl)cc(Cl)c2ccccc12
- T/C (dose: 100.0 mg/kg/injection, schedule: Q04DX003 (ip), vehicle: Klucel (hydroxypropylcellulose) (HPC)): 100 % of control
- T/C (dose: 200.0 mg/kg/injection, schedule: Q04DX003 (ip), vehicle: Klucel (hydroxypropylcellulose) (HPC)): 93 % of control
- T/C (dose: 400.0 mg/kg/injection, schedule: Q04DX003 (ip), vehicle: Klucel (hydroxypropylcellulose) (HPC)): 93 % of control

SMILES: O=C1OC(c2ccccc2)N(c2ccccc2)C(=O)C1Cc1ccccc1 (stereo not drawn)
- T/C [13]: 103 % of control
- T/C [14]: 98 % of control
- T/C [15]: 110 % of control

SMILES: COc1cccc2c1C(=O)c1c(O)c3c(c(O)c1C2=O)C[C@@](O)(C(=O)CO)C[C@@H]3OC1CC([N+](C)(C)C)C(O)C(C)O1 (stereo partly drawn)
- T/C (dose: 3.89 mg/kg/injection, schedule: Q04DX003 (ip), vehicle: water): 105 % of control
- T/C (dose: 6.48 mg/kg/injection, schedule: Q04DX003 (ip), vehicle: water): 109 % of control
- T/C (dose: 12.5 mg/kg/injection, schedule: Q01DX001 (ip), vehicle: water): 112 % of control
- T/C (dose: 12.5 mg/kg/injection, schedule: Q01DX009 (ip), vehicle: water): 160 % of control and 187 % of control
- T/C (dose: 30.0 mg/kg/injection, schedule: Q04DX003 (ip), vehicle: water): 150 % of control

SMILES: Nc1cccc(C(=O)NCCNC(=O)c2cccc(N)c2O)c1O
- T/C [8]: 98 % of control
- T/C [9]: 97 % of control
- T/C [10]: 95 % of control

SMILES: Cc1ccc(NC(=O)C(=O)C(C#N)c2c(Cl)cccc2Cl)c(C)c1 (stereo not drawn)
- T/C [4]: 102 % of control
- T/C [11]: 105 % of control
- T/C (dose: 200.0 mg/kg/injection, schedule: Q01DX005 (ip), vehicle: saline with Tween-80): 105 % of control

SMILES: O=C(Nc1cccc(NC(=O)Nc2cc(C(F)(F)F)ccc2Cl)c1)Nc1cc(C(F)(F)F)ccc1Cl
- T/C [13]: 89 % of control
- T/C [14]: 91 % of control
- T/C [15]: 100 % of control

SMILES: Nc1nc(Br)c2[nH]cnc2n1
- T/C [7]: 110 % of control
- T/C [16]: 118 % of control
- T/C [12]: 120 % of control
- T/C [17]: 113 % of control
- T/C (dose: 400.0 mg/kg/injection, schedule: Q01DX009 (ip), vehicle: saline with Tween-80): 90 % of control
- T/C [18]: 109 % of control

SMILES: Cc1cccc(/C=C/c2csnn2)n1
- T/C [1]: 105 % of control
- T/C [2]: 104 % of control
- T/C [3]: 96 % of control

SMILES: O=C(Nc1cccc2c1C(=O)c1ccc(Nc3cc(NC(=O)c4ccccc4)c4c(c3)C(=O)c3ccccc3C4=O)cc1C2=O)c1ccccc1
- T/C [16]: 100 % of control
- T/C [17]: 100 % of control
- T/C [18]: 109 % of control

SMILES: CC(C)(C)C1CCC2(N3CCOCC3)C(C#N)CC2C1 (stereo not drawn)
- T/C (dose: 25.0 mg/kg/injection, schedule: Q01DX005 (ip), vehicle: Klucel (hydroxypropylcellulose) (HPC)): 105 % of control
- T/C [8]: 102 % of control
- T/C (dose: 50.0 mg/kg/injection, schedule: Q01DX005 (ip), vehicle: saline + Tween-80 + alcohol): 105 % of control
- T/C [9]: 103 % of control
- T/C (dose: 100.0 mg/kg/injection, schedule: Q01DX005 (ip), vehicle: saline + Tween-80 + alcohol): 110 % of control
- T/C [10]: 97 % of control
- T/C (dose: 200.0 mg/kg/injection, schedule: Q01DX005 (ip), vehicle: saline + Tween-80 + alcohol): 94 % of control

SMILES: OC(c1cc2cc(Cl)ccc2c2cc(C(F)(F)F)ccc12)C1CCCCN1 (stereo not drawn)
- T/C (dose: 6.25 mg/kg/injection, schedule: Q01DX009 (ip), vehicle: saline with Tween-80): 106 % of control
- T/C (dose: 12.5 mg/kg/injection, schedule: Q01DX009 (ip), vehicle: saline with Tween-80): 106 % of control

SMILES: NNS(=O)(=O)c1cccc(S(=O)(=O)NN)c1
- T/C (dose: 12.5 mg/kg/injection, schedule: Q01DX009 (ip), vehicle: other): 96 % of control
- T/C (dose: 25.0 mg/kg/injection, schedule: Q01DX009 (ip), vehicle: other): 96 % of control
- T/C (dose: 50.0 mg/kg/injection, schedule: Q01DX009 (ip), vehicle: other): 99 % of control

SMILES: COC(=O)c1nn(-c2ccc(Cl)cc2)c2nc3ccccc3c-2c1C(=O)OC
- T/C (dose: 100.0 mg/kg/injection, schedule: Q01DX001 (ip), vehicle: saline with Tween-80): 96 % of control
- T/C (dose: 200.0 mg/kg/injection, schedule: Q01DX001 (ip), vehicle: saline with Tween-80): 115 % of control
- T/C (dose: 400.0 mg/kg/injection, schedule: Q01DX001 (ip), vehicle: saline with Tween-80): 96 % of control
